Molecules are shown by their SMILES. The source made the active and inactive calls. The rule behind the calls is not given here.

The subject of assay [1] is CCRF-CEM. As to the kind of experiment: In vitro antitumor activity was evaluated against human T-lymphoblastic leukemia cell lines; None = no activity. It is filed as functional, cell-based.
The species named for assay [2] is Mus musculus. Description: Glycosyltransferase inhibitory activity up to a concentration of 50 ug/mL; Without significant activity.
For assay [3], the system named is L1210. Description: In vitro antitumor activity was evaluated against L1210 leukemia cell lines; None = no activity. The format is functional, cell-based. The following applies: Mus musculus.
Assay [4] has as its system Vero. As to the kind of experiment: In vitro antiviral activity was evaluated against vero cell lines infected with Parainfluenza virus type 3; non toxic at concentrations as high as 50000 uM. It is filed as functional, cell-based. Conditions: Chlorocebus sabaeus.
The test system of assay [5] is Vero. Description: In vitro antiviral activity was evaluated against vero cell lines infected with adenovirus type 2; non toxic at concentrations as high as 50000 uM. The following applies: Chlorocebus sabaeus. It is filed as functional, cell-based.
For assay [6], the system named is WIL2. As to the kind of experiment: In vitro antitumor activity was evaluated against human B-lymphoblastic leukemia cell lines; None = no activity. It is filed as functional, cell-based.
The test system of assay [7] is Vero. Description: In vitro antiviral activity was evaluated against vero cell lines infected with herpes simplex virus type-2; non toxic at concentrations as high as 50000 uM. It is filed as functional, cell-based. Conditions: Chlorocebus sabaeus.
The subject of assay [8] is Vero. Description: In vitro antiviral activity was evaluated against vero cell lines infected with influenza virus; non toxic at concentrations as high as 50000 uM. The format is functional, cell-based. Conditions: Chlorocebus sabaeus.
For assay [9], the system named is Vero. Description: In vitro antiviral activity was evaluated against vero cell lines infected with rhino virus; non toxic at concentrations as high as 50000 uM. It is filed as functional, cell-based. The following applies: Chlorocebus sabaeus.
Assay [10] has as its system Vero. As to the kind of experiment: In vitro antiviral activity was evaluated against vero cell lines infected with visna virus; non toxic at concentrations as high as 50000 uM. The format is functional, cell-based. The following applies: Chlorocebus sabaeus.

In the case of `Nc1ncnc2c1ncn2C1O[C@H](COP(=O)(O)CP(=O)(O)OC2O[C@H](CO)[C@@H](O)[C@H](O)[C@H]2O)[C@@H](O)[C@H]1O` (stereo not given in full), the Cytotoxiciy entry in assay [1], in [3] and in assay [6] was “None” each time. For the same compound, in assay [2], the Activity entry is “Without significant activity”. The outcome in assay [4], in assay [5], in assay [7], in [8], in [9] and in assay [10] was inactive.
